Measured values reported in patent US8252290B2, “Herbal composition for treatment of insomnia and other related disorders and a method of preparing the same” (Vita Green Health Products Company Limited, priority 2008, dated 2012).
Counter-ions that a name gives are not always drawn.

Tests used:
Format in all cases: in vivo
mice [1] = experiment: Tail Suspension Test; settings: 20 mg/kg oral
Method: (§1) The following three tests on mice were conducted to investigate the anti-depressant and anti-anxiety activities of the herbal composition of the present invention.
(§2) In all these tests, the test item was the herbal composition as described in Table 2 in the form of a powder. The reference item was Imipramine hydrochloride manufactured by Sigma-Aldrich, USA (for forced swimming and tail suspension tests), and Diazepam tablets supplied by Tianjin Lisheng Pharmaceutical Co. Ltd, China (for elevated plus maze test). Male mice weighing 18-22 g at the start of the study were obtained from the Guangdong Medical Laboratory Animal Center, China.
(§3) At the beginning of each test, the test item was administrated at three dose levels of 69, 208, and 624 mg per kg of mouse by oral route (gastric gavage). For the Forced Swimming Test and Tail Suspension Test, Imipramine was administrated at the dose level of 20 mg per kg of mouse by oral route (gastric gavage), whereas Diazepam was administrated at the dose level of 2 mg per kg of mouse by oral route (gastric gavage). The Control group only received physiological saline orally by gastric gavage.
When a mouse is suspended by its tail, its basic instinct first drives him to struggle, but this inescapable stress will eventually force it to develop an immobile posture. […]

mice [2] = experiment: Forced Swimming Test; settings: 20 mg/kg oral
Description: After an initial period of vigorous activity, the mice adopt a characteristic immobile posture which is readily identifiable.

mice [3] = experiment: Elevated Plus Maze Test; settings: 2 mg/kg oral
Method: as §1, §2, §3
In this common test for assessing anxiety, the mouse is initially placed in the center of an elevated plus-shaped maze consisting of 4 arms (2 open arms & 2 enclosed arms), with its head facing one of the two open arms. The basic measure is to determine the unconditioned response of the tested mouse to a potentially dangerous environment and the preference of the tested mouse for dark, enclosed places over bright places, and exposed places. Typically, the tested mice would avoid entering into open arms due to anxiety, and mice administrated with anxiolytic […] treatments would have decreased aversion to heights and open spaces.
In this test, two batches of mice were used and in each batch, the mice were allotted at random to five groups, each consisting of ten animals.
The ratio of open arm entry is the frequency of the times the mice entering the open arms to the total frequency of entry into both open and enclosed arms (in percentages). Likewise, the ratio of time spent in open arms is the proportion of time spent by the mice in the open arms to the total times spent in both open and enclosed arms (in percentages).

Structure (SMILES) | Time of immobility (mice [1]; First Batch, p<0.01 vs Control 115.89 ± 39.27) | Time of immobility (mice [1]; Second Batch, p<0.01 vs Control 100.76 ± 33.49) | Time of immobility (mice [2]; First Batch, p<0.01 vs Control 93.19 ± 31.07) | Time of immobility (mice [2]; Second Batch, p<0.01 vs Control 110.61 ± 28.03) | Head dipping (mice [3]; First Batch, Control 16.2 ± 4.61) | Ratio of time spent in open arms (mice [3]; First Batch, p<0.01 vs Control 31.94 ± 10.82) | Ratio of open arms entry (mice [3]; First Batch, p<0.01 vs Control 36.16 ± 6.13) | Head dipping (mice [3]; Second Batch, p<0.01 vs Control 14.0 ± 4.64) | Ratio of time spent in open arms (mice [3]; Second Batch, p<0.01 vs Control 29.82 ± 8.88) | Ratio of open arms entry (mice [3]; Second Batch, p<0.01 vs Control 33.66 ± 7.95)
CN(C)CCCN1c2ccccc2CCc2ccccc21 [Imipramine, Imipramine hydrochloride] | 60.08 ± 16.67 s | 52.66 ± 17.05 s | 43.92 ± 17.63 s | 59.90 ± 17.40 s |  |  |  |  |  | 
CN1C(=O)CN=C(c2ccccc2)c2cc(Cl)ccc21 [Diazepam] |  |  |  |  | 20.67 ± 10.42 times | 50.51 ± 10.58 % | 51.27 ± 10.08 % | 21.5 ± 6.15 times | 47.52 ± 12.35 % | 52.48 ± 9.97 %
